Values of other authors in US7881871B2, “Method for designing surfaces” (Bio-Layer Pty Limited, priority 2003, dated 2011).
Where two headings read alike, the source gives them in different places.

Assays:
[1] = tested on: monoclonal antibodies (IgG subclasses)

Substance	affinity for monoclonal antibodies ([1]; human IgG1, IgG2, IgG3, mouse IgG2a and IgG2b)	affinity for monoclonal antibodies ([1]; human IgG1, rat IgG1, IgG2a and IgG2b)	affinity for monoclonal antibodies ([1]; mouse IgG1 and IgG3, rat IgG2c)	affinity for antibodies (antibodies (Fc fragment); horse, cow and mouse antibodies)	affinity for antibodies (antibodies (Fc fragment); human, pig, rabbit and guinea pig antibodies)	affinity for antibodies (antibodies (Fc fragment); sheep, goat, chicken, hamster and rat antibodies)	affinity for monoclonal antibodies ([1]; human IgG1, IgG2, IgG3 and IgG4, mouse IgG1, IgG2a, IgG2b and IgG3, rat IgG2a)	affinity for monoclonal antibodies ([1]; rat IgG1, IgG2b and IgG2c)	affinity for antibodies (antibodies (Fc fragment); chicken antibodies)	affinity for antibodies (antibodies (Fc fragment); human, horse, cow, pig and rabbit antibodies)	affinity for antibodies (antibodies (Fc fragment); sheep, goat, hamster, guinea pig, rat and mouse antibodies)
Protein A: 42,000 dalton cell-wall-associated protein of S. Aureus with IgG binding activity	high affinity	no affinity	moderate or low affinity	moderate affinity	high affinity	low or no affinity					
Protein G: 30,000 to 35,000 dalton protein isolated from the cell wall of beta-hemolytic Streptococci							high affinity	moderate or low affinity	low affinity	high affinity	moderate affinity
